{
  "source": "patent US20230293526A1",
  "about": "“METHOD FOR TREATING CANCER WITH A REVERSE TRANSCRIPTASE INHIBITOR” (PrimeFour Therapeutics, Inc., priority 2020, published 2023)",
  "type_in_all_cases": "cell-based",
  "key": {"UO31": {"test_system": "UO31", "assay": "Cell proliferation Ex.3", "settings": "Homo sapiens, UO-31"}, "SF295": {"test_system": "SF295", "assay": "Cell proliferation Ex.3", "settings": "Homo sapiens, SF-295"}, "K-562": {"test_system": "K-562", "assay": "Cell proliferation Ex.3", "settings": "Homo sapiens, K562"}, "786O": {"test_system": "786O", "assay": "Cell proliferation Ex.3", "settings": "Homo sapiens"}, "SKMEL5": {"test_system": "SKMEL5", "assay": "Cell proliferation Ex.3", "settings": "Homo sapiens, SK-MEL-5"}, "HEPG2": {"test_system": "HEPG2", "assay": "Cell proliferation Ex.3", "settings": "Homo sapiens"}, "PANC1005": {"test_system": "PANC1005", "assay": "Cell proliferation Ex.3", "settings": "Homo sapiens"}, "MDAMB468": {"test_system": "MDAMB468", "assay": "Cell proliferation Ex.3", "settings": "Homo sapiens, MDA-MB-468"}, "HS578T": {"test_system": "HS578T", "assay": "Cell proliferation Ex.3", "settings": "Homo sapiens, Hs-578T"}, "CALU6": {"test_system": "CALU6", "assay": "Cell proliferation Ex.3", "settings": "Homo sapiens, Calu-6"}, "L363": {"test_system": "L363", "assay": "Cell proliferation Ex.3", "settings": "Homo sapiens, L-363"}, "MG63": {"test_system": "MG63", "assay": "Cell proliferation Ex.3", "settings": "Homo sapiens, MG-63"}, "NCI-H1838": {"test_system": "NCI-H1838", "assay": "Cell proliferation CellTiterGlo Ex.2", "settings": "Homo sapiens; NCI-H1838 (Lung), 72 h", "description": "(§1) A dose response relationship on cell proliferation was assessed for Compound 13 on 140 tumor cell lines. Briefly, compound treatment of cells started one day after seeding with a final DMSO concentration of 0.100, and was performed by nanodrop-dispensing using a Tecan Dispenser. 0.10% DMSO (solvent) and Staurosporine (10 μM) served as high control (10000 viability) and low control (000 viability), respectively. Compound 13 was tested at 10, 3, 1, 0.3, 0.1, 0.03, 0.01, and 0.003 μM.\n(§2) Cells were cultured in the appropriate media. For the assays, cells were seeded in white cell culture-treated flat and clear bottom multiwell plates and incubated at 37° C. overnight before compound was added. After incubation for 72 h at 37° C. at 5% or 10% CO2 dependent on the medium, cell plates were equilibrated to room temperature for one hour, CellTiterGlo reagent (Promega) was added and luminescence was measured approximately an hour later using a luminometer.\n(§3) Raw data were converted into percent cell viability relative to the high and low control, which were set to 10000 and 000, respectively."}, "BEN": {"test_system": "BEN", "assay": "Cell proliferation CellTiterGlo Ex.2", "settings": "BEN (Lung), 72 h", "description": "as §1, §2, §3"}, "BT-20": {"test_system": "BT-20", "assay": "Cell proliferation CellTiterGlo Ex.2", "settings": "Homo sapiens; BT-20 (Breast), 72 h", "description": "as §1, §2, §3"}, "NCI-H1573": {"test_system": "NCI-H1573", "assay": "Cell proliferation CellTiterGlo Ex.2", "settings": "Homo sapiens; NCI-H1573 (Lung), 72 h", "description": "as §1, §2, §3"}, "OV56": {"test_system": "OV56", "assay": "Cell proliferation CellTiterGlo Ex.2", "settings": "OV56 (Ovary), 72 h", "description": "as §1, §2, §3"}, "RKO": {"test_system": "RKO", "assay": "Cell proliferation CellTiterGlo Ex.2", "settings": "Homo sapiens; RKO (Colon), 72 h", "description": "as §1, §2, §3"}, "MCF-7": {"test_system": "MCF-7", "assay": "Cell proliferation CellTiterGlo Ex.2", "settings": "Homo sapiens, MCF7; MCF-7 (Breast), 72 h", "description": "as §1, §2, §3"}, "Hep3B2.1-7": {"test_system": "Hep3B2.1-7", "assay": "Cell proliferation CellTiterGlo Ex.2", "settings": "Hep3B2.1-7 (Liver), 72 h", "description": "as §1, §2, §3"}, "MKN-45": {"test_system": "MKN-45", "assay": "Cell proliferation CellTiterGlo Ex.2", "settings": "Homo sapiens; MKN-45 (Stomach), 72 h", "description": "as §1, §2, §3"}, "A172": {"test_system": "A172", "assay": "Cell proliferation CellTiterGlo Ex.2", "settings": "Homo sapiens, A 172; A172 (Brain), 72 h", "description": "as §1, §2, §3"}, "Caki-2": {"test_system": "Caki-2", "assay": "Cell proliferation CellTiterGlo Ex.2", "settings": "Homo sapiens; Caki-2 (Kidney), 72 h", "description": "as §1, §2, §3"}, "K562": {"test_system": "K562", "assay": "Cell proliferation CellTiterGlo Ex.2", "settings": "Homo sapiens; K562 (Blood), 72 h", "description": "as §1, §2, §3"}, "A431": {"test_system": "A431", "assay": "Cell proliferation CellTiterGlo Ex.2", "settings": "Homo sapiens, A-431; A431 (Skin), 72 h", "description": "as §1, §2, §3"}, "786-O": {"test_system": "786-O", "assay": "Cell proliferation CellTiterGlo Ex.2", "settings": "Homo sapiens, 786-0; 786-O (Kidney), 72 h", "description": "as §1, §2, §3"}},
  "data": [
    {"smiles": "C#C[C@]1(CO)O[C@@H](n2cc(F)c(N)nc2=O)C[C@@H]1O", "note": "[compound 9]", "values": [
      {"measurement": "IC50", "setting": "UO31; UO31, 72 h", "value": "> 10", "unit": "µM"},
      {"measurement": "IC50", "setting": "UO31; UO31, 120 h", "value": "> 10", "unit": "µM"},
      {"measurement": "IC50", "setting": "UO31; UO31, 168 h", "value": "> 10", "unit": "µM"},
      {"measurement": "IC50", "setting": "SF295; SF295, 72 h", "value": "> 10", "unit": "µM"},
      {"measurement": "IC50", "setting": "SF295; SF295, 120 h", "value": "> 10", "unit": "µM"},
      {"measurement": "IC50", "setting": "SF295; SF295, 168 h", "value": "> 10", "unit": "µM"},
      {"measurement": "IC50", "setting": "K-562; K-562, 72 h", "value": "> 10", "unit": "µM"},
      {"measurement": "IC50", "setting": "K-562; K-562, 120 h", "value": "> 10", "unit": "µM"},
      {"measurement": "IC50", "setting": "K-562; K-562, 168 h", "value": "> 10", "unit": "µM"},
      {"measurement": "IC50", "setting": "786O; 786-0, 72 h", "value": "> 10", "unit": "µM"},
      {"measurement": "IC50", "setting": "786O; 786-0, 120 h", "value": "> 10", "unit": "µM"},
      {"measurement": "IC50", "setting": "786O; 786-0, 168 h", "value": "> 10", "unit": "µM"},
      {"measurement": "IC50", "setting": "SKMEL5; SKMEL5, 72 h", "value": "> 10", "unit": "µM"},
      {"measurement": "IC50", "setting": "SKMEL5; SKMEL5, 120 h", "value": "> 10", "unit": "µM"},
      {"measurement": "IC50", "setting": "SKMEL5; SKMEL5, 168 h", "value": "> 10", "unit": "µM"},
      {"measurement": "IC50", "setting": "HEPG2; HepG2, 72 h", "value": "> 10", "unit": "µM"},
      {"measurement": "IC50", "setting": "HEPG2; HepG2, 120 h", "value": "> 10", "unit": "µM"},
      {"measurement": "IC50", "setting": "HEPG2; HepG2, 168 h", "value": "> 10", "unit": "µM"},
      {"measurement": "IC50", "setting": "PANC1005; Panc1005, 72 h", "value": "> 10", "unit": "µM"},
      {"measurement": "IC50", "setting": "PANC1005; Panc1005, 120 h", "value": "> 10", "unit": "µM"},
      {"measurement": "IC50", "setting": "PANC1005; Panc1005, 168 h", "value": "> 10", "unit": "µM"},
      {"measurement": "IC50", "setting": "MDAMB468; MDAMB468, 72 h", "value": "> 10", "unit": "µM"},
      {"measurement": "IC50", "setting": "MDAMB468; MDAMB468, 120 h", "value": "> 10", "unit": "µM"},
      {"measurement": "IC50", "setting": "MDAMB468; MDAMB468, 168 h", "value": "> 10", "unit": "µM"},
      {"measurement": "IC50", "setting": "HS578T; 72 h", "value": "> 10", "unit": "µM"},
      {"measurement": "IC50", "setting": "HS578T; 120 h", "value": "> 10", "unit": "µM"},
      {"measurement": "IC50", "setting": "HS578T; 168 h", "value": "> 10", "unit": "µM"},
      {"measurement": "IC50", "setting": "CALU6; CALU6, 72 h", "value": "> 10", "unit": "µM"},
      {"measurement": "IC50", "setting": "CALU6; CALU6, 120 h", "value": "> 10", "unit": "µM"},
      {"measurement": "IC50", "setting": "CALU6; CALU6, 168 h", "value": "> 10", "unit": "µM"},
      {"measurement": "IC50", "setting": "L363; L363, 72 h", "value": "> 10", "unit": "µM"},
      {"measurement": "IC50", "setting": "L363; L363, 120 h", "value": "> 10", "unit": "µM"},
      {"measurement": "IC50", "setting": "L363; L363, 168 h", "value": "> 10", "unit": "µM"},
      {"measurement": "IC50", "setting": "MG63; MG63, 72 h", "value": "> 10", "unit": "µM"},
      {"measurement": "IC50", "setting": "MG63; MG63, 120 h", "value": "> 10", "unit": "µM"},
      {"measurement": "IC50", "setting": "MG63; MG63, 168 h", "value": "> 10", "unit": "µM"}
    ]},
    {"smiles": "C#C[C@]1(CO)O[C@@H](n2cnc3c(=O)[nH]c(N)nc32)C[C@@H]1O", "note": "[compound 13]", "values": [
      {"measurement": "IC50", "setting": "NCI-H1838", "value": 7.53, "unit": "µM"},
      {"measurement": "IC50", "setting": "BEN", "value": "> 10", "unit": "µM"},
      {"measurement": "IC50", "setting": "BT-20", "value": "> 10", "unit": "µM"},
      {"measurement": "IC50", "setting": "NCI-H1573", "value": 8.59, "unit": "µM"},
      {"measurement": "IC50", "setting": "OV56", "value": 1.99, "unit": "µM"},
      {"measurement": "IC50", "setting": "RKO", "value": 4.51, "unit": "µM"},
      {"measurement": "IC50", "setting": "MCF-7", "value": "> 10", "unit": "µM"},
      {"measurement": "IC50", "setting": "Hep3B2.1-7", "value": 0.82, "unit": "µM"},
      {"measurement": "IC50", "setting": "MKN-45", "value": "> 10", "unit": "µM"},
      {"measurement": "IC50", "setting": "A172", "value": "> 10", "unit": "µM"},
      {"measurement": "IC50", "setting": "Caki-2", "value": "> 10", "unit": "µM"},
      {"measurement": "IC50", "setting": "K562", "value": "> 10", "unit": "µM"},
      {"measurement": "IC50", "setting": "A431", "value": 5.06, "unit": "µM"},
      {"measurement": "IC50", "setting": "786-O", "value": 5.81, "unit": "µM"}
    ]}
  ]
}
